Results published in patent US4314061A, “Certain 3,6-bis-(heteroaminoalkoxy) acridines” (priority 1980, dated 1982).

Tests used:
[1] = system: natural killer lymphocytes (NK cells); test: Stimulation of NK-cell activity in normal mice
Lewis lung carcinoma = test: Surgical-adjuvant antitumor activity against Lewis lung carcinoma implanted subcutaneously in footpads; assay type: in vivo, BDF1 mice; conditions: for Average % of tumor weight inhibition / Average tumor weight: Day +11; for No. Survivors/No. Treated: at +90 days; for % Increased life-span: + significant (≥25%)
Procedure: BDF1 mice were inoculated subcutaneously in the right hind footpad with 5×10^5 viable Lewis Lung carcinoma cells, on day zero. […] A control group of mice received a saline placebo instead of drug, and another group of tumor bearing mice received the positive control drug cyclophosphamide, at 100 mg/kg, administered by intraperitoneal injection. On the 11th day after tumor implantation, the mice were anesthesized with Nembutal, and the tumor bearing feet surgically amputated above the ankle joint. The surgical incision was swabbed with alcohol and sealed with stainless steel wound clips. The tumor bearing feet were individually weighed and the average weight of a normal foot (determined by weighing amputated feet from non-tumor bearing mice of the same age, sex and body weight) was subtracted to obtain the weight of tumor tissue in the amputated foot. Mice were then observed for deaths until the 90th day after tumor implantation. […]
^1 BDF1 male mice inoculated subcutaneously in footpad with 5
× 10^5 Lewis lung tumor cells on day zero;
3,6bis(2-diethylaminoethoxy)acridine trihydrochloride administered orally
and Cyclophosphamide intraperitoneally, on days 1, 7, and 13 following
^2 Average tumor weight determined after surgical amputation of tumor
bearing foot on day 11 following tumor implantation.

[2] = system: Rauscher Virus-Induced Leukemia; test: Inhibition of splenomegaly in mice with Rauscher virus-induced leukemia; assay type: in vivo, Balb/c mice
B-16 melanoma = test: Potentiation of cyclophosphamide (Cytoxan) activity against B16 melanoma in mice; assay type: in vivo, BDF1 mice
Procedure: BDF1 male mice were inoculated subcutaneously with 0.25 ml. of a 10% B-16 melanoma homogenate. Cyclophosphamide was administered intraperitoneally at 80 mg./kg. the second day following the day of tumor implantation. Test compounds were given intraperitoneally on days +6, +8 and +10 relative to tumor implantation. […]
BDF1 male mice inoculated subcutaneously with 0.25 ml. of a 10% tumo
homogenate on day 0. Drugs were administered intraperitoneally;
cyclophosphoamide on day 2, 3,6bis(2-diethylaminoethoxy)acridine
trihydrochloride on days 6, 8 and 10.
^1 Number of survivors over number of mice treated.

[3] = 25 mg/kg i.p. + cyclophosphamide 80 mg/kg
[4] = 25 mg/kg i.p. + cyclophosphamide 80 mg/kg, day 21
[5] = 50 mg/kg i.p. + cyclophosphamide 80 mg/kg
[6] = 50 mg/kg i.p. + cyclophosphamide 80 mg/kg, day 21
[7] = 100 mg/kg i.p. + cyclophosphamide 80 mg/kg
[8] = 100 mg/kg i.p. + cyclophosphamide 80 mg/kg, day 21

CCN(CC)CCOc1ccc2cc3ccc(OCCN(CC)CC)cc3nc2c1.Cl.Cl.Cl
% Cytotoxicity ([1]; Test 1 (CD1 mice), 75 mg/kg oral, ** p <.01): 29.5% | % Cytotoxicity ([1]; Test 1 (CD1 mice), 150 mg/kg oral, ** p <.01): 37.7% | % Cytotoxicity ([1]; Test 1 (CD1 mice), 300 mg/kg oral, * p <.05): 25.8% | % Cytotoxicity ([1]; Test 2 (BDF1 hybrids), 75 mg/kg oral, ** p <.01): 44.4% | % Cytotoxicity ([1]; Test 2 (BDF1 hybrids), 150 mg/kg oral, ** p <.01): 40.9% | % Cytotoxicity ([1]; Test 2 (BDF1 hybrids), 300 mg/kg oral, * p <.05): 38.2% | Stimulation of NK cell activity, in words ([1]; mouse, in vivo): active in this test | Median survival time (Lewis lung carcinoma; 50 mg/kg oral): > 90.0 days | Average % of tumor weight inhibition (Lewis lung carcinoma; 50 mg/kg oral): 38% | Average tumor weight (Lewis lung carcinoma; 50 mg/kg oral): 236 mg | No. Survivors/No. Treated (Lewis lung carcinoma; 50 mg/kg oral): 8/12 | % Increased life-span (Lewis lung carcinoma; 50 mg/kg oral): > 200% | Median survival time (Lewis lung carcinoma; 100 mg/kg oral): > 90.0 days | Average % of tumor weight inhibition (Lewis lung carcinoma; 100 mg/kg oral): 46% | Average tumor weight (Lewis lung carcinoma; 100 mg/kg oral): 203 mg | No. Survivors/No. Treated (Lewis lung carcinoma; 100 mg/kg oral, ** p < .05): 9/12 | % Increased life-span (Lewis lung carcinoma; 100 mg/kg oral): > 200% | Median survival time (Lewis lung carcinoma; 200 mg/kg oral): > 90.0 days | Average tumor weight (Lewis lung carcinoma; 200 mg/kg oral): 38 mg | Average % of tumor weight inhibition (Lewis lung carcinoma; 200 mg/kg oral, * significant (≥58%)): 90% | No. Survivors/No. Treated (Lewis lung carcinoma; 200 mg/kg oral, ** p < .05): 12/12 | % Increased life-span (Lewis lung carcinoma; 200 mg/kg oral): > 200% | Median survival time (Lewis lung carcinoma; 300 mg/kg oral): > 90.0 days | Average tumor weight (Lewis lung carcinoma; 300 mg/kg oral): 56 mg | Average % of tumor weight inhibition (Lewis lung carcinoma; 300 mg/kg oral, * significant (≥58%)): 85% | No. Survivors/No. Treated (Lewis lung carcinoma; 300 mg/kg oral, ** p < .05): 10/12 | % Increased life-span (Lewis lung carcinoma; 300 mg/kg oral): > 200% | Median survival time (Lewis lung carcinoma; 400 mg/kg oral): > 90.0 days | Average tumor weight (Lewis lung carcinoma; 400 mg/kg oral): 17 mg | Average % of tumor weight inhibition (Lewis lung carcinoma; 400 mg/kg oral, * significant (≥58%)): 96% | No. Survivors/No. Treated (Lewis lung carcinoma; 400 mg/kg oral, ** p < .05): 10/12 | % Increased life-span (Lewis lung carcinoma; 400 mg/kg oral): > 200% | % Reduction in splenomegaly ([2]; 50 mg/kg): 68% | % Reduction in splenomegaly ([2]; 100 mg/kg): 71% | ILS (Percent increase in life span over control) (B-16 melanoma; [3]): 31% | MST (Median Survival Time) (B-16 melanoma; [3]): 29.5 days | Average tumor weight (B-16 melanoma; [4]): 2029 mg | Number of survivors over number of mice treated (B-16 melanoma; [4]): 8/8 | Number of survivors over number of mice treated (B-16 melanoma; 25 mg/kg i.p. + cyclophosphamide 80 mg/kg, day 26): 6/8 | Average tumor weight (B-16 melanoma; 25 mg/kg i.p. + cyclophosphamide 80 mg/kg, day 26, p <0.05 vs cyclophosphamide alone and vs either drug alone): 3125 mg | ILS (Percent increase in life span over control) (B-16 melanoma; 25 mg/kg i.p. alone): 27% | MST (Median Survival Time) (B-16 melanoma; 25 mg/kg i.p. alone): 28.5 days | Average tumor weight (B-16 melanoma; 25 mg/kg i.p. alone, day 21): 2625 mg | Number of survivors over number of mice treated (B-16 melanoma; 25 mg/kg i.p. alone, day 21): 7/8 | Number of survivors over number of mice treated (B-16 melanoma; 25 mg/kg i.p. alone, day 26): 5/8 | Average tumor weight (B-16 melanoma; 25 mg/kg i.p. alone, day 26, p <0.05 vs untreated): 6303 mg | ILS (Percent increase in life span over control) (B-16 melanoma; [5]): 27% | MST (Median Survival Time) (B-16 melanoma; [5]): 28.5 days | Average tumor weight (B-16 melanoma; [6]): 2041 mg | Number of survivors over number of mice treated (B-16 melanoma; [6]): 8/8 | Number of survivors over number of mice treated (B-16 melanoma; 50 mg/kg i.p. + cyclophosphamide 80 mg/kg, day 26): 7/8 | Average tumor weight (B-16 melanoma; 50 mg/kg i.p. + cyclophosphamide 80 mg/kg, day 26, p <0.05 vs cyclophosphamide alone): 4258 mg | ILS (Percent increase in life span over control) (B-16 melanoma; 50 mg/kg i.p. alone): 18% | MST (Median Survival Time) (B-16 melanoma; 50 mg/kg i.p. alone): 26.5 days | Number of survivors over number of mice treated (B-16 melanoma; 50 mg/kg i.p. alone, day 21): 7/8 | Average tumor weight (B-16 melanoma; 50 mg/kg i.p. alone, day 21, p <0.05 vs untreated): 2168 mg | Number of survivors over number of mice treated (B-16 melanoma; 50 mg/kg i.p. alone, day 26): 4/8 | Average tumor weight (B-16 melanoma; 50 mg/kg i.p. alone, day 26, p <0.05 vs untreated): 3111 mg | ILS (Percent increase in life span over control) (B-16 melanoma; [7]): 22% | MST (Median Survival Time) (B-16 melanoma; [7]): 27.5 days | Average tumor weight (B-16 melanoma; [8]): 1532 mg | Number of survivors over number of mice treated (B-16 melanoma; [8]): 8/8 | Number of survivors over number of mice treated (B-16 melanoma; 100 mg/kg i.p. + cyclophosphamide 80 mg/kg, day 26): 5/8 | Average tumor weight (B-16 melanoma; 100 mg/kg i.p. + cyclophosphamide 80 mg/kg, day 26, p <0.05 vs cyclophosphamide alone): 2836 mg | ILS (Percent increase in life span over control) (B-16 melanoma; 100 mg/kg i.p. alone): 22% | MST (Median Survival Time) (B-16 melanoma; 100 mg/kg i.p. alone): 27.5 days | Number of survivors over number of mice treated (B-16 melanoma; 100 mg/kg i.p. alone, day 21): 7/8 | Average tumor weight (B-16 melanoma; 100 mg/kg i.p. alone, day 21, p <0.05 vs untreated): 1892 mg | Number of survivors over number of mice treated (B-16 melanoma; 100 mg/kg i.p. alone, day 26): 7/8 | Average tumor weight (B-16 melanoma; 100 mg/kg i.p. alone, day 26, p <0.05 vs untreated): 4127 mg | inhibition in local tumor growth (B-16 melanoma; in combination with Cytoxan, i.p., day +26): 50% | 50% inhibition in local tumor growth, in words (B-16 melanoma; monotherapy, i.p., day +26): failed to do so
